In patent publication US20250340537A1, “PHARMACEUTICALLY ACTIVE COMPOUNDS, COMPOSITIONS, AND METHODS FOR MODULATING PENDRIN” (ARBORMED Co., Ltd., priority 2022, published 2025):
pEC50: −log10 of the molar value.

Columns and labels:
Assay type in all cases: cell-based
H723R-hPDS = biological target: T1, H723R-hPDS (Homo sapiens, UniProt O43511, H723R); experiment: Surface biotinylation assay; settings: Panc1 hPDS-H723R cells, 24 h treatment
T1 construct: expressed in transfected cells; host or cells: Panc1 (Panc1^hPDS-H723R)
T1 sequence (O43511 1-780 H723R): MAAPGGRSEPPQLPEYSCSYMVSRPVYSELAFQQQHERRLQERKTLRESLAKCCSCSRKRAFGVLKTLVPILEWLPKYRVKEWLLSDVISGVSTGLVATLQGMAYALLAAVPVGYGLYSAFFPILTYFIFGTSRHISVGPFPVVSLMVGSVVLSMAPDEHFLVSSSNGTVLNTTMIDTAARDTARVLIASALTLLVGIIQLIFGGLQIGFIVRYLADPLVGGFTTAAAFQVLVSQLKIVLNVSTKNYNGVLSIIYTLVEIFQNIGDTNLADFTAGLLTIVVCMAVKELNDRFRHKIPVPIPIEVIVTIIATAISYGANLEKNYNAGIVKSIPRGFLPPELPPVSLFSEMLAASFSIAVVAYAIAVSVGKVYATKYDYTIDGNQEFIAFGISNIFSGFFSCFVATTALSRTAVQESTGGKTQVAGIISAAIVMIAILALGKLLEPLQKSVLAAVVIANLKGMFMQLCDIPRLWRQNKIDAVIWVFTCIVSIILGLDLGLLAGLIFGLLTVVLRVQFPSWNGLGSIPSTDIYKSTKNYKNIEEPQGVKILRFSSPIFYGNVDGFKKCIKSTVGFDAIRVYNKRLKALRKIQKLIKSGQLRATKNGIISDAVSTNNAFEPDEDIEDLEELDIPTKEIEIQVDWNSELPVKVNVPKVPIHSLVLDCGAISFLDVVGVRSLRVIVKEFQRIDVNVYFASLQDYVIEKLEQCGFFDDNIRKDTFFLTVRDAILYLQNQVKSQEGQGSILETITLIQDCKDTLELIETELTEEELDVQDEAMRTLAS
Description: Surface biotinylation is a commonly used technique to specifically isolate plasma membrane proteins using a modified biotin in a form that is easy to bind with proteins. Sulfo-NHS-SS-biotin is a generally used reagent in surface biotinylation due to its impermeability and water solubility. In cool conditions, the extracellular domain of membrane proteins is covalently binding with the reactive biotin ester. These proteins are separated from the whole lysate via a biotin-streptavidin response. In this process, we can validate the increasing rate of the expression level of mutant pendrin in the plasma membrane.
Panc1^parental, Panc1^hPDS-WT and Panc1^hPDS-H723R cells were cultured in high glucose DMEM medium supplemented with 10% fetal bovine serum and 1% antibiotics. 24 hours after seeding in 6-well plates, cells were treated as indicated for 24 h. Cells were washed in PBS and incubated on ice with 0.3 mg/ml biotin in PBS. After 35 min, 1% BSA in PBS, D.W mixture (1:1) was added to cells, and cells were incubated for 10 min. Cells were washed and lysed in lysis buffer. The lysates were sonicated for 20 seconds, and not boiled. After centrifugated, the supernatants were collected and quantified via BCA analysis. The quantified supernatants were added to 10% avidin beads in PBS and incubated overnight at 4° C. After incubation, the below steps were repeated 4 times: i) centrifugation, ii) removing the supernatant, iii) washing with lysis buffer. After the last centrifugation and removing the supernatant, the sample buffer mixed with reducing buffer was added to biotin-avidin mixtures. The elution was accomplished in the 38° C. bioshaker for 40 min and the supernatant was collected. The supernatant was separated by SDS-PAGE and transferred to an Immobilon membrane. After incubation in 5% BSA solution to prevent nonspecific binding, the membrane was incubated with specific antibodies overnight. Then, the membrane was washed with TBST buffer and incubated with HRP-conjugated anti-rabbit or -mouse antibody for 1 hour. The ECL buffer and iBright were used for the visualization of protein bands. The respective protein band intensity was quantified by densitometric analysis using the NIH ImageJ program.
It is indicated as expression % with the following key: A=Expression % greater than 100%; B=Expression % greater than 50%, but less than 100%; C=Expression % less than 50%.

H723R-pendrin [1] = biological target: T2, H723R-pendrin (Homo sapiens, UniProt O43511, H723R); experiment: YFP fluorescence quenching assay (Cl−/I− exchange activity of pendrin); settings: PANC-1 cells stably expressing human H723R-pendrin and YFP-F46L/H148Q/I152L; compound incubation 20-24 hours; iodide influx
T2 construct: expressed in transfected cells; host or cells: PANC-1
T2 sequence (O43511 1-780 H723R): T1 sequence (O43511 1-780 H723R)
Description: Halide sensor YFP F46L/H148Q/I152L is quenched by halide ion like Iodide. When such YFP is expressed in a cell, it expresses in the cytoplasm.
To measure H723R-PDS activity, PANC-1 cells were stably transfected with halide sensors YFP-F46L/H148Q/I152L and H723R-PDS which has problems with membrane trafficking due to misfolding.
If the cell-treated drug is a corrector for H723R-PDS, H723R-PDS will translocate normally to the plasma membrane.
At this time, when treated with a high-concentration iodide solution outside the cell, iodide enters the cell due to the Cl−/I− exchange activity of pendrin, and the fluorescence of the halide sensor YFP decreases.
PANC-1 cells were cultured in Dulbecco's Modified Eagle's Medium with 10% fetal bovine serum, 2 mM glutamine, 100 units/ml penicillin and 100 µg/ml streptomycin. For high-throughput screening, PANC-1 cells were stably transfected with human H723R-pendrin and halide sensor YFP-F46L/H148Q/I152L.
PANC-1 cells expressing human H723R-pendrin and YFP-F46L/H148Q/I152L were plated in 96-well microplates at a density of 2×10^4 cells per well and grown for 20-24 hours at 37° C. (90% humidity 5% CO2). Then these cells were treated with 50 μl growth medium containing test compounds and incubated for 20-24 hours. For YFP quenching assay, each well of the 96-well plate was washed 2 times with 200 μl of PBS, and it was filled with 50 μl of HEPES-buffered solution (140 mM NaCl, 5 mM KCl, 1 mM MgCl2, 1 mM CaCl2, 10 mM D-glucose, 10 mM HEPES; pH 7.4 with NaOH). After 10 minutes of incubation at 37° C., the 96-well plate was moved on the FLUOstar Omega Microplate Reader (BMG Labtech, Ortenberg, Germany) for a fluorescence assay. Each well was assayed individually for H723R-pendrin mediated I^− influx by recording fluorescence (495±15 nm excitation, 520±20 nm emission) every 400 ms for 1 second (baseline). Then, 50 μL of NaI-substituted HEPES-buffered solution (NaI replacing NaCl) was added using a liquid injector at 1 second and YFP fluorescence was recorded every 400 ms for 10 seconds. The initial iodide influx rate was determined from the initial slope of fluorescence by nonlinear regression, after the infusion of iodide.
It is indicated as EC50 with the following key: A=EC50 less than 5 uM; B=EC50 greater than 5 uM, but less than 10 uM; C=EC50 greater than 10 uM.

H723R-pendrin [2] = biological target: T2, H723R-pendrin; experiment: PTI assay (Cl−/HCO3− exchange activity); settings: PANC-1 cells, BCECF pHi
Experimental: Measurements of intracellular pH (pHi) in PANC-1 cells were performed with the pH-sensitive fluorescent probe 2′,7′-bis-(2-carboxyethyl)-5-(and-6)-carboxyfluorescein (BCECF) according to previously reported protocols. Briefly, cells were incubated with 2 μM BCECF acetoxy-methylester for 5 min and then perfused with a HCO3^−-buffered solution [containing 120 mM NaCl, 5 mM KCl, 1 mM MgCl2, 1 mM CaCl2, 10 mM d-glucose, 5 mM Hepes, and 25 mM NaHCO3 (pH 7.4)].
BCECF fluorescence was recorded at excitation wavelengths of 490 and 440 nm at a resolution of 2/s on a recording setup. The Cl^−/HCO3^− exchange activities were estimated from the initial rate of pHi increase as a result of Cl^− removal from the HCO3^−-containing buffer (25 mM HCO3^− with 5% CO2).
The pHi calibration was performed with standard pH solutions containing 150 mM KCl and 5 μM nigericin. The intrinsic buffer capacity (βi) was calculated by measuring ΔpHi in response to 5 to 40 mM NH4Cl pulses in Na^+-free solutions. Because the βi values were not substantially affected by transfection with the plasmids encoding for WT-pendrin or H723R-pendrin, the Cl^−/HCO3^− exchange activities were expressed as ΔpH unit/min without compensating for the buffer capacity.
It is indicated as exchange % with the following key: A=Exchange % greater than 50%; B=Exchange % less than 50%.

Surface expression % of H723R-hPDS relative to WT-hPDS (Glycosylated form pendrin) (H723R-hPDS; 3 uM)	Surface expression % of H723R-hPDS relative to WT-hPDS (Glycosylated form pendrin) (H723R-hPDS; 10 uM)	pEC50 (H723R-pendrin [1])	Cl−/HCO3− exchange, % of WT-hPDS (H723R-pendrin [2]; 3 uM)	Cl−/HCO3− exchange, % of WT-hPDS (H723R-pendrin [2]; 10 uM)	SMILES
A (A=Expression % greater than 100%)	A (A=Expression % greater than 100%)	> 5.30	B (B=Exchange % less than 50%)	A (A=Exchange % greater than 50%)	COc1cc(-c2cncc(C3=C(N)N(c4ccccc4Cl)CC3=O)n2)ccc1O [Compound 28]
A (A=Expression % greater than 100%)	A (A=Expression % greater than 100%)	> 5.30			NC1=C(c2cncc(-c3ccc(O)c(O)c3)n2)C(=O)CN1C1CCCC1 [Compound 33]
		> 5.30	B (B=Exchange % less than 50%)	A (A=Exchange % greater than 50%)	NC1=C(c2cncc(-c3ccc(O)c(O)c3)n2)C(=O)CN1CC1CCC1 [Compound 69]
		< 5.00			NC1=C(c2ccnc(-c3ccc(O)c(O)c3)c2)C(=O)CN1CC1CCCC1 [Compound 109]
		> 5.30			COc1cc(-c2ccnc(C3=C(N)N(CC4CCCC4)CC3=O)n2)ccc1O [Compound 110]
		5.00 to 5.30			NC1=C(c2cncc(-c3ccc(O)c(OC4COC4)c3)n2)C(=O)CN1CC1CCC1 [Compound 112]
		> 5.30			COCOc1ccc(-c2cncc(C3=C(N)N(CC4CCCC4)CC3=O)n2)cc1OC [Compound 116]
		5.00 to 5.30			NC1=C(c2cncc(-c3ccc(O)c(OC4COC4)c3)n2)C(=O)CN1C1CCCC1 [Compound 117]
		< 5.00			COC1CC(Oc2cc(-c3cncc(C4=C(N)N(CC5CCCC5)CC4=O)n3)ccc2O)C1 (centres unmarked) [Compound 118]
		< 5.00			NC1=C(c2cncc(-c3ccc(O)c(O)c3)n2)C(=O)CN1c1cccnc1Cl [Compound 119]

Continued, compound first:

SMILES	Surface expression % of H723R-hPDS relative to WT-hPDS (Glycosylated form pendrin) (H723R-hPDS; 3 uM)	Surface expression % of H723R-hPDS relative to WT-hPDS (Glycosylated form pendrin) (H723R-hPDS; 10 uM)	pEC50 (H723R-pendrin [1])	Cl−/HCO3− exchange, % of WT-hPDS (H723R-pendrin [2]; 3 uM)	Cl−/HCO3− exchange, % of WT-hPDS (H723R-pendrin [2]; 10 uM)
COc1ccc(-c2cncc(C3=C(N)N(CC(C)C)CC3=O)n2)cc1OC [Compound 8]	B (B=Expression % greater than 50%, but less than 100%)	A (A=Expression % greater than 100%)	> 5.30		
CC(C)CN1CC(=O)C(c2cncc(-c3ccc(O)c(O)c3)n2)=C1N [Compound 13]	A (A=Expression % greater than 100%)	A (A=Expression % greater than 100%)	> 5.30		
NC1=C(c2cncc(-c3ccc(O)c(O)c3)n2)C(=O)CN1CCC1CCCC1 [Compound 46]	B (B=Expression % greater than 50%, but less than 100%)	A (A=Expression % greater than 100%)	> 5.30		
NC1=C(c2cncc(-c3ccc(O)c(O)c3)n2)C(=O)CN1CC1CCCCC1 [Compound 49]	A (A=Expression % greater than 100%)	A (A=Expression % greater than 100%)	> 5.30	A (A=Exchange % greater than 50%)	A (A=Exchange % greater than 50%)
NC1=C(c2cncc(-c3ccc(O)c(O)c3)n2)C(=O)CN1C1CCC(F)(F)C1 (centres unmarked) [Compound 62]	B (B=Expression % greater than 50%, but less than 100%)	A (A=Expression % greater than 100%)	> 5.30		
COc1cc(-c2cncc(C3=C(N)N(CC4CCCC4)CC3=O)n2)ccc1O [Compound 73]			> 5.30	A (A=Exchange % greater than 50%)	A (A=Exchange % greater than 50%)
COc1ccc(-c2cc(C3=C(N)N(CC4CCCC4)CC3=O)ccn2)cc1OC [Compound 108]			< 5.00		
NC1=C(c2cncc(-c3ccc(O)c(OC4CC(O)C4)c3)n2)C(=O)CN1CC1CCCC1 (centres unmarked) [Compound 111]			> 5.30		
NC1=C(c2cncc(-c3ccc(O)c(OC4CC(N)C4)c3)n2)C(=O)CN1CC1CCCC1 (centres unmarked) [Compound 113]			< 5.00		
NC1=C(c2ccnc(-c3ccc(O)c(O)c3)n2)C(=O)CN1c1ccccc1Cl [Compound 114]			> 5.30		
COCOc1ccc(-c2cncc(C3=C(N)N(C4CCCC4)CC3=O)n2)cc1OC1COC1 [Compound 115]			< 5.00		
NC1=C(c2cncc(-c3ccc(O)c(O)c3)n2)C(=O)CN1c1ncncc1Cl [Compound 120]			< 5.00		
